PubChem BioAssay AID1963871 (Molecular Pharmacology Branch, DTP, NCI, 2024)
pIC50: −log10 of the molar value.

Tested on: KRAS-mutant PDC multicell tumor spheroid viability
Assay: Anticancer human tumor 521955-158-R2-J5-PDC patient-derived pancreatic carcinoma cell line growth inhibition [KRAS2]
Conditions: for pIC50: curve of first compound; for viability, T/C: stronger effect = lower value
Procedure, shortened: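 KRAS-mutant tumor cells were grown as spheroids with HUVEC endothelial cells and human MSCs as stroma. Targeted agents were tested alone and with KRAS pathway inhibitors. Doses started at or near clinical Cmax, or 10 microM, descending half-log.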
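Further: viability read after seven days of drug exposure.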

In the case of CC1OCC2(CCN(c3cnc(Sc4ccnc(N)c4Cl)c(N)n3)CC2)C1N (stereo not given) + COc1cc2nc(C)nc(NC(C)c3cc(N)cc(C(F)(F)F)c3)c2cc1OC1CCOC1, the pIC50 (second compound 0.1 µM) was < 5.00, the pIC50 (second compound 0.316 µM) was < 5.00 and the pIC50 (second compound 1 µM) was < 5.00. The pIC50 (second compound 3.16 µM) was < 5.00, the pIC50 (second compound 10 µM) was 5.37 and the viability, T/C (second compound 0.1 µM, first compound 0.0316 µM) was 87.6%. It also gave a viability, T/C (second compound 0.1 µM, first compound 0.1 µM) of 83.6%, a viability, T/C (second compound 0.1 µM, first compound 0.316 µM) of 77.6% and a viability, T/C (second compound 0.1 µM, first compound 1 µM) of 75.9%. For the same compound, the viability, T/C (second compound 0.1 µM, first compound 3.16 µM) was 72.5%, the viability, T/C (second compound 0.1 µM, first compound 10 µM) was 56.6% and the viability, T/C (second compound 0.316 µM, first compound 0.0316 µM) was 82.3%. It also gave a viability, T/C (second compound 0.316 µM, first compound 0.1 µM) of 97.1%, a viability, T/C (second compound 0.316 µM, first compound 0.316 µM) of 85.9% and a viability, T/C (second compound 0.316 µM, first compound 1 µM) of 71.9%. For the same compound, the viability, T/C (second compound 0.316 µM, first compound 3.16 µM) was 64.2%, the viability, T/C (second compound 0.316 µM, first compound 10 µM) was 55.4% and the viability, T/C (second compound 1 µM, first compound 0.0316 µM) was 105%. The viability, T/C (second compound 1 µM, first compound 0.1 µM) was 92.1%, the viability, T/C (second compound 1 µM, first compound 0.316 µM) was 82.4% and the viability, T/C (second compound 1 µM, first compound 1 µM) was 74.4%. The viability, T/C (second compound 1 µM, first compound 3.16 µM) was 72.1%, the viability, T/C (second compound 1 µM, first compound 10 µM) was 62.5% and the viability, T/C (second compound 3.16 µM, first compound 0.0316 µM) was 111%. For the same compound, the viability, T/C (second compound 3.16 µM, first compound 0.1 µM) was 102%, the viability, T/C (second compound 3.16 µM, first compound 0.316 µM) was 88% and the viability, T/C (second compound 3.16 µM, first compound 1 µM) was 83.8%. The viability, T/C (second compound 3.16 µM, first compound 3.16 µM) was 80.3%, the viability, T/C (second compound 3.16 µM, first compound 10 µM) was 84.6% and the viability, T/C (second compound 10 µM, first compound 0.0316 µM) was 90.4%. It also gave a viability, T/C (second compound 10 µM, first compound 0.1 µM) of 84.7%, a viability, T/C (second compound 10 µM, first compound 0.316 µM) of 76.9% and a viability, T/C (second compound 10 µM, first compound 1 µM) of 65.9%. The viability, T/C (second compound 10 µM, first compound 3.16 µM) was 58.5% and the viability, T/C (second compound 10 µM, first compound 10 µM) was 35%.
